Like-named read-outs stand apart in the source and are kept apart here.

In the test the test system is Eimeria tenella of wild type (fresh immature oocysts). In words: microbe, parasite or virus in culture. The settings on record: read-out: Mortality of oocysts (%). It counts as cell-based. As to the method: Chicks were infested with Eimeria tenella of wild type to obtain fresh immature oocycts. The obtained fresh immature oocysts were exposed to a solution of each test substance having a predetermined concentration for 10 or 30 minutes. The exposed immature oocysts were centrifuged at 1500 min^−1 for 5 minutes, and the supernatant was removed. Then, a 2% potassium bichromate aqueous solution was added, and sporulation was carried out at 25° C. for 4 days, whereupon the ratio of mature oocysts (sporulated oocysts) to the number of observed oocysts, was calculated.
Mortality of oocysts={1−(sporulation rate with exposure to test substance)/(sporulation rate without exposure to test substance)}×100

For the compound `Cc1ccc(-c2c(Cl)nc(C#N)n2S(=O)(=O)N(C)C)cc1` [compound 1, 4-chloro-2-cyano-1-dimethylsulfamoyl-5-(4-methylphenyl)imidazole], for the setting “10 min”, the mortality (usually the share of the test organisms that died) at 0.1 ppm stood at 43.8%, the mortality at 1 ppm amounted to 36.9% and the mortality at 10 ppm worked out at 42.5%. In addition, for the setting “0.5 h”, the mortality at 0.1 ppm turned out to be 51.1%, the mortality at 1 ppm worked out at 80.3% and the mortality at 10 ppm came out at 87.9%.

With `CCc1ccc(C(F)c2c(Cl)nc(C#N)n2S(=O)(=O)N(C)C)cc1` (stereo not drawn) [compound 5, 4-chloro-2-cyano-1-dimethylsulfamoyl-5-(4-ethyl-α-fluorobenzyl)imidazole], the mortality at 0.1 ppm runs as follows: (10 min, Exposure time: 10 min, 0.1 ppm) 34.4%; (0.5 h, Exposure time: 30 min, 0.1 ppm) 71.3%. Besides, the mortality at 1 ppm is, setting by setting: (10 min, Exposure time: 10 min, 1 ppm) 30%; (0.5 h, Exposure time: 30 min, 1 ppm) 75.2%. Besides, the mortality at 10 ppm was found to be 75% (10 min, Exposure time: 10 min, 10 ppm) and 72.6% (0.5 h, Exposure time: 30 min, 10 ppm).

For the origin of these results see patent US6713500B2, “Agent for controlling animal diseases caused by parasites” (Ishihara Sangyo Kaisha Ltd., priority 1999, dated 2004).
